Experimental data: US20210070748A1, “INHIBITORS OF BRUTONS TYROSINE KINASE” (Pharmacyclics LLC, priority 2015, published 2021)
pIC50: −log10 of the molar value.

Columns and labels:
JAK3 = target: T1, JAK3 (Homo sapiens, UniProt P52333); assay: Inhibition of a panel of kinases, in vitro HotSpot kinase assay: JAK3; assay type: biochemical; settings: D-compounds panel data; 1 μM ATP; read-out: IC50 JAK3
T1 sequence (P52333 1-1124): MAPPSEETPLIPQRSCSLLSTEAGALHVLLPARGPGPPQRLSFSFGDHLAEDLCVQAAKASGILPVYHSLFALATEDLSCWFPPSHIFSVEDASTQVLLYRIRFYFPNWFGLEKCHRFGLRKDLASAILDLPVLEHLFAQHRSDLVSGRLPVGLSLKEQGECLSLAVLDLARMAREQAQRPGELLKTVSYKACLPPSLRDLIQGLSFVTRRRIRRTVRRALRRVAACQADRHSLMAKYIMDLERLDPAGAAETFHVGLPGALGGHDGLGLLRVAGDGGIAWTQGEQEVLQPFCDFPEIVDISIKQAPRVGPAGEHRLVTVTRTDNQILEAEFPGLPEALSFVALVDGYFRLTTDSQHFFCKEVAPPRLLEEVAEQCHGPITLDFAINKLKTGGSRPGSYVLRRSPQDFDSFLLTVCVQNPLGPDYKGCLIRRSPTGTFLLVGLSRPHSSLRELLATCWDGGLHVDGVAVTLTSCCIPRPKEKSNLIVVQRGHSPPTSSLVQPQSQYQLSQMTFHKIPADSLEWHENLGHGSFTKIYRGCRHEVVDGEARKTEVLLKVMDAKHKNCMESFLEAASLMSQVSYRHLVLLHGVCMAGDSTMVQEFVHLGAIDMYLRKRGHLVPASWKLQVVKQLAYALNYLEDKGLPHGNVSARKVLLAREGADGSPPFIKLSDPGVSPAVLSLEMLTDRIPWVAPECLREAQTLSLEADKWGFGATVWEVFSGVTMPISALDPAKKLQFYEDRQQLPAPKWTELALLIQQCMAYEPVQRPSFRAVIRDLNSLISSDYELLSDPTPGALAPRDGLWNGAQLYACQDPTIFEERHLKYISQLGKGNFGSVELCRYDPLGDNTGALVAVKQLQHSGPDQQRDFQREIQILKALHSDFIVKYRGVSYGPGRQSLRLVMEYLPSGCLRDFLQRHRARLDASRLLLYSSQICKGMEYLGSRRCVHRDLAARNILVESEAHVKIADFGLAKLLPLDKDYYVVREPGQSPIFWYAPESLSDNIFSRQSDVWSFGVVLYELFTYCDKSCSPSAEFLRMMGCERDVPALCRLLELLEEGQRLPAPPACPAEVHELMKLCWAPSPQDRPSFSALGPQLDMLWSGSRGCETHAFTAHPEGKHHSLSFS

SRC = SRC (Homo sapiens, UniProt P12931); assay: Inhibition of a panel of kinases, in vitro HotSpot kinase assay: SRC; assay type: biochemical; settings: D-compounds panel data; 1 μM ATP
Protocol: The degree of inhibition of a panel of kinases is determined using the in vitro HotSpot kinase assay (purified enzymes, ^33P-ATP, an appropriate substrate and 1 μM ATP).

Chain of SRC (P12931 whole entry): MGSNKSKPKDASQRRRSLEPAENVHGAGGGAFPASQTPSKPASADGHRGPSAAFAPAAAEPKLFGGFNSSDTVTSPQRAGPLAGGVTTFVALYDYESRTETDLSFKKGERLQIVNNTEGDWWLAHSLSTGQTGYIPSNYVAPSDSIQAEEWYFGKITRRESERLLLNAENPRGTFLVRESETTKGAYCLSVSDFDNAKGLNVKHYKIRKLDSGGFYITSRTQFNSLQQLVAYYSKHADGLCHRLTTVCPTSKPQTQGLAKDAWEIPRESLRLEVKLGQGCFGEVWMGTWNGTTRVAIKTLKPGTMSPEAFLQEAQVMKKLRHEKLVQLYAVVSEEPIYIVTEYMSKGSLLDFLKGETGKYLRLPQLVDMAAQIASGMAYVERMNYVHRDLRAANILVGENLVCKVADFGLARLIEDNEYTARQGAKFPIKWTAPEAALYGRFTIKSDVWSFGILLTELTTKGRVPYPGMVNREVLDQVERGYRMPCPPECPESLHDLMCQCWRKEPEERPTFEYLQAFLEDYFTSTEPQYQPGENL

Row | SMILES | pIC50 (JAK3) | pIC50 (SRC)
1 | C/C=C/c1ccc(C(=O)N[C@@H]2CCCN(c3cnc(C(N)=O)c(Nc4cc(C)ns4)c3)[C@@H]2C)c(F)c1 [Example D-170, 5-[(2R,3R)-3-{2-fluoro-4-[(1E)-prop-1-en-1-yl]benzamido}-2-methylpiperidin-1-yl]-3-[(3-methyl-1,2-thiazol-5-yl)amino]pyridine-2-carboxamide] | 5.00 to 6.00 | 6.00 to 7.00
2 | Cn1cc(Nc2nc(N3CCC(F)(F)[C@H](NC(=O)c4ccc(C5CC5)cc4)C3)cnc2C(N)=O)cn1 [Example D-192, 5-[(3R)-3-(4-cyclopropylbenzamido)-4,4-difluoropiperidin-1-yl]-3-[(1-methyl-1H-pyrazol-4-yl)amino]pyrazine-2-carboxamide] | 5.00 to 6.00 | 5.00 to 6.00
3 | C[C@@H]1[C@H](NC(=O)c2ccc(C(C)(C)O)cc2)CCCN1c1cnc(C(N)=O)c(Nc2cnn(C)c2)n1 [Example D-194, 5-[(2R,3R)-3-[4-(2-hydroxypropan-2-yl)benzamido]-2-methylpiperidin-1-yl]-3-[(1-methyl-1H-pyrazol-4-yl)amino]pyrazine-2-carboxamide] | 5.00 to 6.00 | 6.00 to 7.00
4 | Cc1nc2cc(C(=O)N[C@@H]3CCCN(c4cnc(C(N)=O)c(Nc5cnn(C)c5)n4)[C@@H]3C)ccc2s1 [Example D-242, N-[(2R,3R)-1-{5-carbamoyl-6-[(1-methyl-1H-pyrazol-4-yl)amino]pyrazin-2-yl}-2-methylpiperidin-3-yl]-2-methyl-1,3-benzothiazole-5-carboxamide] | 6.00 to 7.00 | 7.00 to 8.00
5 | C[C@@H]1[C@H](NC(=O)c2ccc(C(C)(C)C)cc2F)CCCN1c1cnc(C(N)=O)c(Nc2cnn(C)c2)n1 [Example D-223, 5-[(2R,3R)-3-(4-tert-butyl-2-fluorobenzamido)-2-methylpiperidin-1-yl]-3-[(1-methyl-1H-pyrazol-4-yl)amino]pyrazine-2-carboxamide] | < 5.00 | 6.00 to 7.00
6 | C[C@@H]1[C@H](NC(=O)c2ccc(C(O)(C(F)(F)F)C(F)(F)F)cc2)CCCN1c1cnc(C(N)=O)c(Nc2cnn(C)c2)n1 [Example D-240, 5-[(2R,3R)-3-[4-(1,1,1,3,3,3-hexafluoro-2-hydroxypropan-2-yl)benzamido]-2-methylpiperidin-1-yl]-3-[(1-methyl-1H-pyrazol-4-yl)amino]pyrazine-2-carboxamide] | 5.00 to 6.00 | 6.00 to 7.00
7 | Cn1cc(Nc2nc(N3C4CCC(NC(=O)c5ccc(C6CC6)cc5)C3CC4)cnc2C(N)=O)cn1 (single isomer, unassigned) [Example D-200, 5-[2-(4-cyclopropylbenzamido)-8-azabicyclo[32.1]octan-8-yl]-3-[(1-methyl-1H-pyrazol-4-yl)amino]pyrazine-2-carboxamide] | < 5.00 | 5.00 to 6.00
8 | C[C@@H]1[C@H](NC(=O)c2ccc(C(C)(C)C)s2)CCCN1c1cnc(C(N)=O)c(Nc2cnn(C)c2)n1 [Example D-229, 5-[(2R,3R)-3-(5-tert-butylthiophene-2-amido)-2-methylpiperidin-1-yl]-3-[(1-methyl-1H-pyrazol-4-yl)amino]pyrazine-2-carboxamide] | < 5.00 | 6.00 to 7.00
9 | C[C@@H]1[C@H](NC(=O)c2ccc(S(F)(F)(F)(F)F)cc2)CCCN1c1cnc(C(N)=O)c(Nc2cnn(C)c2)n1 [Example D-230, 3-[(1-methyl-1H-pyrazol-4-yl)amino]-5-[(2R,3R)-2-methyl-3-[4-(pentafluoro-λ^6-sulfanyl)benzamido]piperidin-1-yl]pyrazine-2-carboxamide] | < 5.00 | 6.00 to 7.00
10 | Cn1cc(Nc2nc(N3C4CCC(NC(=O)c5ccc(C6CC6)cc5)C3CC4)cnc2C(N)=O)cn1 (single isomer, unassigned) [Example D-201, 5-[2-(4-cyclopropylbenzamido)-8-azabicyclo[3.2.1]octan-8-yl]-3-[(1-methyl-1H-pyrazol-4-yl)amino]pyrazine-2-carboxamide] | 5.00 to 6.00 | 7.00 to 8.00
11 | CC(C)c1ccc(S(=O)(=O)N[C@@H]2CCCN(c3cnc(C(N)=O)c(Nc4cnn(C)c4)n3)[C@@H]2C)cc1 [Example D-220, 3-[(1-methyl-1H-pyrazol-4-yl)amino]-5-[(2R,3R)-2-methyl-3-[4-(propan-2-yl)benzenesulfonamido]piperidin-1-yl]pyrazine-2-carboxamide] | 5.00 to 6.00 | 5.00 to 6.00
12 | CC(C)c1ccc(C(=O)N[C@@H]2CCCN(c3cnc(C(N)=O)c(Nc4cnn(C)c4)n3)C2)cc1 [Example D-222, 3-[(1-Methyl-1H-pyrazol-4-yl)amino]-5-[(3R)-3-[4-(propan-2-yl)benzamido]piperidin-1-yl]pyrazine-2-carboxamide] | < 5.00 | 5.00 to 6.00
13 | C[C@H]1CC[C@@H](NC(=O)c2ccc(C(C)(C)O)cc2)CN1c1cnc(C(N)=O)c(Nc2cnn(C)c2)n1 [Example D-236, 5-[(2S,5R)-5-[4-(2-hydroxypropan-2-yl)benzamido]-2-methylpiperidin-1-yl]-3-[(1-methyl-1H-pyrazol-4-yl)amino]pyrazine-2-carboxamide] | 6.00 to 7.00 | 7.00 to 8.00
14 | C[C@@H]1[C@H](NC(=O)c2ccc(N(C)C)cc2)CCCN1c1cnc(C(N)=O)c(Nc2ccc(C3(C)CCN(C4CCCC4)CC3)cc2)n1 [Example D-183, 3-{[4-(1-cyclopentyl-4-methylpiperidin-4-yl)phenyl]amino}-5-[(2R,3R)-3-[4-(dimethylamino)benzamido]-2-methylpiperidin-1-yl]pyrazine-2-carboxamide] | 6.00 to 7.00 | ≥ 8.00

The remaining lines, values ahead:

Row | pIC50 (JAK3) | pIC50 (SRC) | SMILES
15 | < 5.00 | < 5.00 | CN1CCN(c2ccc(Nc3nc(N4CCC[C@@H](n5ccc6cc(C7CC7)ccc6c5=O)C4)cnc3C(N)=O)nc2)CC1 [Example D-179, 5-[(3R)-3-(6-cyclopropyl-1-oxo-1,2-dihydroisoquinolin-2-yl)piperidin-1-yl]-3-{[5-(4-methylpiperazin-1-yl)pyridin-2-yl]amino}pyrazine-2-carboxamide]
16 | 5.00 to 6.00 | 6.00 to 7.00 | C[C@@H]1[C@H](NC(=O)c2ccc(C3CC3)cc2F)CCCN1c1cnc(C(N)=O)c(Nc2ccc(N3CCN(C)CC3)nc2)n1 [Example D-13, 5-[(2R,3R)-3-(4-cyclopropyl-2-fluorobenzamido)-2-methylpiperidin-1-yl]-3-{[6-(4-methylpiperazin-1-yl)pyridin-3-yl]amino}pyrazine-2-carboxamide]
17 | 5.00 to 6.00 | 6.00 to 7.00 | C[C@@H]1[C@H](NC(=O)c2ccc(C3CC3)c(Cl)c2)CCCN1c1cnc(C(N)=O)c(Nc2ccc(N3CCN(C)CC3)cc2)n1 [Example D-17, 5-[(2R,3R)-3-(3-chloro-4-cyclopropylbenzamido)-2-methylpiperidin-1-yl]-3-{[4-(4-methylpiperazin-1-yl)phenyl]amino}pyrazine-2-carboxamide]
18 | 5.00 to 6.00 | 7.00 to 8.00 | C[C@@H]1[C@H](NC(=O)c2ccc(SC(F)(F)F)cc2)CCCN1c1cnc(C(N)=O)c(Nc2ccc(N3CCN(C)CC3)cc2)n1 [Example D-233, 5-[(2R,3R)-2-methyl-3-{4-[(trifluoromethyl)sulfanyl]benzamido}piperidin-1-yl]-3-{[4-(4-methylpiperazin-1-yl)phenyl]amino}pyrazine-2-carboxamide]
19 | 6.00 to 7.00 | ≥ 8.00 | C[C@@H]1[C@H](NC(=O)c2ccc(S(C)(=O)=O)cc2)CCCN1c1cnc(C(N)=O)c(Nc2ccc(N3CCN(C)CC3)cc2)n1 [Example D-227, 5-[(2R,3R)-3-(4-methanesulfonylbenzamido)-2-methylpiperidin-1-yl]-3-{[4-(4-methylpiperazin-1-yl)phenyl]amino}pyrazine-2-carboxamide]
20 | 6.00 to 7.00 | 6.00 to 7.00 | C[C@@H]1[C@H](NC(=O)c2ccc(C3CC3)cc2)CCCN1c1cnc(C(N)=O)c(Nc2cnn(C)c2)c1 [Example D-207, 5-[(2R,3R)-3-(4-cyclopropylbenzamido)-2-methylpiperidin-1-yl]-3-[(1-methyl-1H-pyrazol-4-yl)amino]pyridine-2-carboxamide]
21 | 5.00 to 6.00 | 7.00 to 8.00 | C[C@@H]1[C@H](NC(=O)c2ccc(C3CC3)cn2)CCCN1c1cnc(C(N)=O)c(Nc2ccc(N3CCN(C)CC3)cc2)n1 [Example D-188, 5-[(2R,3R)-3-(5-cyclopropylpyridine-2-amido)-2-methylpiperidin-1-yl]-3-{[4-(4-methylpiperazin-1-yl)phenyl]amino}pyrazine-2-carboxamide]
